From article PMC9965125, “New NSAID Conjugates as Potent and Selective COX-2 Inhibitors: Synthesis, Molecular Modeling and Biological Investigation” (Molecules, 2023)

Legend:
[1] = test system: carrageenan induced paw edema; assay: carrageenan-induced rat paw edema; assay type: in vivo
Protocol: Anti-inflammatory activity screening
The anti-inflammatory activity of the tested compounds was determined in-vivo by the acute carrageenan induced paw edema standard method in rats. Adult Wister rats of either sex (pregnant female animals were excluded) weighing 120–150 g were divided into 19 groups of 6 animals each. The tested compounds dissolved in DMSO, at a dose of 10 mg kg-1 (rat body […]
inflammation. The control group was given DMSO only. Paw edema was induced by subcutaneous injection of freshly prepared 1% solution of carrageenan in saline (0.9%, 0.1 ml per rat) into subplantar tissue of the right hind paw of rats. The thickness of the paw was measured (in mm) after successive time intervals (1, 2, 3, 4 and 24 h) and compared with the initial hind paw thickness of each rat for determining the edema thickness. Data were collected, checked, revised and analyzed (SPSS 16). Quantitative variables from normal distribution were expressed as means ± SE “standard error”. The anti-inflammatory activity was expressed as percentage inhibition of edema thickness in treated animals in comparison with the control group according to eqn. (1) […]
% Inhibition of edema= Vc-Vt x 100 … .. (1)
Where, Vc and Vt are the means of edema paw thickness for the control and tested compound treated animal groups, respectively.
The potency of the tested compounds was expressed as % inhibition of edema thickness […]
% Potency = % inhibition of edema for the tested compound treated group x 100 … . (2)

[2] = test system: acetic acid-induced abdominal writhing; assay: acetic acid-induced abdominal writhing assay (peripheral analgesic); assay type: in vivo, mice; conditions: for % Inhibition/Protection / Writing Reflex ± SE: 10 mg/kg indomethacin mol equivalent i.p.; for Potency: % inhibition/protection compared to indomethacin; for Writing Reflex ± SE: number of writhing counted for 30 min
Protocol: Peripheral analgesic testing
Peripheral analgesic activity was measured by the standard acetic acid-induced writhing […]
One hour after intraperitoneally (i,p.) administration of 10 mg kg−1 (mice body weight) […]
distilled/sterile water by the aid of two drops of Tween 80, each mouse was injected with 0.1 ml of 1% acetic acid solution i.p. The control group animals were given sterile/distilled water only with few drops of Tween 80. Starting 5 min after the acetic acid injection, the number of muscular contractions in each mouse was counted for 30 min. A significant reduction in the number of writhing by any test compound as compared to control animals was considered as a positive analgesic response. Percentage protection was calculated according to equ. (3), where n stands for the average number of writhing in the control group and n' is the average number of writhing in the treated group. The % potency was calculated by equ. (4) (Table 2).
% Inhibition/protection = n−n′ x100 … . (3)

hot plate latency = assay: hot plate assay (central analgesic); assay type: in vivo, mice; conditions: for % Protection / Latency Period ± SE: 10 mg/kg indomethacin mol equivalent i.p.; for Latency Period ± SE: cutoff 15 sec; for Potency: at 120 min compared to indomethacin
Protocol: The % potency was calculated by equ. (4) (Table 2). […]
% Potency = % protection of the tested compound x 100 ……. (4) […]
Central analgesic (hot plate) testing
The standard hot plate technique was undertaken by in vivo standard hot plate test [ 1,2]. […]
by placing them on a hot plate maintained at 55 ± 1 °C, 30 min. […]
suspended in sterile/distilled water by the ai d of two drops of Tween 80, and recording the reaction time in seconds for forepaw licking or jumping. The control group animals were given sterile/distilled water only with few drops of Tween 80. The maximum cutoff time was chosen as 15 sec. to prevent tissue damage. Response latencies were measured 30, 60, 90 and 120 min. after the application. The % protection was calculated by equ. ( 5) where, T1, T0 are the latency time mean of the tested compound and control group, respectively (Table 3).

gastric mucosa = conditions: both, albino, mouse, in vivo, po, 10 mg/kg, 3 days
Protocol: The ulcerogenic liability was determined in albino mice obeying the standard method.
Animals of either sex (pregnant females were excluded) weighing 20 –25 g were divided into 8 groups of 6 animals each. The animals fasted 18 h before drug administration.
80 administered orally for three successive days to fasted animals at a dose of 10 mg kg-1 (animal […]
The control group animals were given water only with few drops of Tween 80. The animals were sacrificed by cervical dislocation and the stomach was removed, opened along the greater curvature and rinsed with saline. The gastric mucosa was examined with a magnifying lens (10x) for the presence of lesions and ero sions. The ulcer index was calculated (Table 4) and the degree of ulcerogenic effect was expressed in terms of.
1. The percentage incidence of ulcers divided by 10.
2. Average number of ulcers per stomach.
3. Average severity of ulcers.
The ulcer index is the value that resulted from the sum of the above three values. […]

[3] = 1 h, 10 mg/kg indomethacin mol equivalent i.p.
[4] = 2 h, 10 mg/kg indomethacin mol equivalent i.p.
[5] = 4 h, 10 mg/kg indomethacin mol equivalent i.p.
[6] = 24 h, 10 mg/kg indomethacin mol equivalent i.p.

Row | SMILES | % Inhibition of Edema ± Standard Error [1, 3] [%] | % Inhibition of Edema ± Standard Error [1, 4] [%] | % Inhibition of Edema ± Standard Error [1, 5] [%] | % Inhibition/Protection [2] [%] | Potency [2] [%] | Writing Reflex ± SE [2] | % Protection (hot plate latency; after 30 min) [%] | Latency Period ± SE (hot plate latency; after 30 min) [s] | % Protection (hot plate latency; after 60 min) [%] | Latency Period ± SE (hot plate latency; after 60 min) [s] | % Protection (hot plate latency; after 90 min) [%] | Latency Period ± SE (hot plate latency; after 90 min) [s] | % Protection (hot plate latency; after 120 min) [%] | Latency Period ± SE (hot plate latency; after 120 min) [s] | Potency (hot plate latency) | % Inhibition of Edema ± Standard Error [1, 6] [%] | further results
1 | CC(C)Cc1ccc(C(C)C(=O)O)cc1 (stereo not shown) [Ibu, Ibuprofen, reference compound] | 44.4 ± 2.5 | 43.5 ± 2.9 | 21.0 ± 1.1 | 58.5 | 81.5 | 16.6 ± 0.7 | 61.7 | 10.80 ± 0.8 | 51.3 | 11.00 ± 1.3 | 33.6 | 11.90 ± 1.5 | 54.3 | 13.90 ± 2.2 | 96.1 | – | % Inhibition of Edema ± Standard Error ([1]; 3 h, 10 mg/kg indomethacin mol equivalent i.p.): 78.8 ± 0.9%; % Inhibition of Edema ± Standard Error ([1]; 24 h, 10 mg/kg indomethacin mol equivalent i.p., 10 mg/kg): 11.2 ± 0.6%; % Inhibition of Edema ± Standard Error ([1]; 24 h, 10 mg/kg indomethacin mol equivalent i.p., listed as ibuprofen, 10 mg/kg): 11.2%; Mean Edema Thickness ([1]; 24 h, 10 mg/kg indomethacin mol equivalent i.p., ± standard error): 0.817 ± 0.07 mm; % Potency ([1]; % inhibition of edema thickness relative to indomethacin at 3 h): 97.2%; % Incidence of Ulcer Divided by 10 (gastric mucosa): 3.33; Average Severity of Ulcer (gastric mucosa): 0.67; Average of Ulcer Number (gastric mucosa): 0.33; Number of Animals with Ulcer (gastric mucosa): 2/6
2 | COc1ccc2c(c1)c(CC(=O)OCc1cn(-c3ccc(F)cc3)nn1)c(C)n2C(=O)c1ccc(Cl)cc1 [Compound 8c, (1-(4-Fluorophenyl)-1H-1,2,3-triazol-4-yl)methyl 2-(1-(4-chlorobenzoyl)-5-methoxy-2-methyl-1H-indol-3-yl)acetate] | – | – | – | 41.3 | 57.5 | 23.5 ± 1.4 | 69.5 | 11.32 ± 0.8 | 29.2 | 9.39 ± 1.1 | 27.9 | 11.40 ± 1.6 | 48.1 | 13.34 ± 1.8 | 85.1 | 0.00 ± 1.0 | –
3 | COc1ccc2c(c1)c(CC(=O)OCc1cn(-c3ccccc3OC)nn1)c(C)n2C(=O)c1ccc(Cl)cc1 [Compound 8e, (1-(2-Methoxyphenyl)-1H-1,2,3-triazol-4-yl)methyl 2-(1-(4-chlorobenzoyl)-5-methoxy-2-methyl-1H-indol-3-yl)acetate] | 0.00 ± 0.2 | 6.5 ± 1.0 | 4.2 ± 1.9 | 80.8 | 112.5 | 7.7 ± 1.3 | 69.2 | 11.30 ± 1.1 | 82.0 | 13.23 ± 1.6 | 27.5 | 11.36 ± 2.5 | 28.9 | 11.61 ± 2.2 | 51.2 | 0.00 ± 0.3 | –
4 | CC(C)Cc1ccc(C(C)C(=O)OCc2cn(-c3ccc([N+](=O)[O-])cc3)nn2)cc1 (stereo not shown) [Compound 5g, (1-(4-Nitrophenyl)-1H-1,2,3-triazol-4-yl)methyl 2-(4-isobutylphenyl)propanoate] | 34.0 ± 1.8 | – | – | 65.0 | 90.5 | 14.0 ± 1.9 | 87.1 | 12.5 ± 2.1 | 73.2 | 12.59 ± 1.5 | 19.0 | 10.60 ± 2.6 | 28.1 | 11.54 ± 2.2 | 49.7 | 0.00 ± 0.5 | –
5 | CC(C)Cc1ccc(C(C)C(=O)OCc2cn(-c3ccc(F)cc3)nn2)cc1 (stereo not shown) [Compound 5c, (1-(4-Fluorophenyl)-1H-1,2,3-triazol-4-yl)methyl 2-(4-isobutylphenyl)propanoate] | 0.00 ± 1.0 | – | – | 83.3 | 116.0 | 6.7 ± 0.5 | 112.1 | 14.17 ± 2.6 | 106.3 | 15.0 ± 2.3 | 67.3 | 14.91 ± 2.5 | – | 10.63 ± 1.8 | 31.9 | 0.00 ± 0.2 | % Protection (hot plate latency; after 120 min, 10 mg/kg): 18%; % protection relative to its parent drug ibuprofen (hot plate latency; at 30 min): 1.8 folds
